The values below come from patent US8772012B2 (Kabushiki Kaisha Toyota Chuo Kenkyusho, priority 2009, dated 2014).

For test [1], the system named is Piromyces sp. E2 xylose isomerase PiXI, expressed in yeast. Particulars: Non-patent Literature 1; cited from earlier work.
Test [2] relates to Xylose isomerase RsXIC1-O (RsXI-C1, SEQ ID NO: 2; codon optimized gene RsXIC1-O, SEQ ID NO: 45), intestinal protist of Reticulitermes speratus, expressed in …. In words: Xylose isomerase kinetic analysis, crude yeast extract of W600W/pRS436GAP-RsXIC1-O (SDH-coupled NADH oxidation). The format is biochemical. The method, then: (§1) The genes were synthesized by Genscript Corporation (www.Genscript.com) and Life Technologies Corporation (www.lifetechnologies.com), and the synthesized genes were named RsXIC1-O (SEQ ID NO: 45), PiXI-O (SEQ ID NO: 46) and CpXI-O (SEQ ID NO: 47), respectively.
(§2) The W600W/pRS436GAP-RsXIC1-O strain and W600W/pRS436GAP-PiXI-O strain were cultured for 24 hours in SD liquid medium, and the cells were collected and washed twice with sterile water, and then washed twice with 100 mM phosphate buffer (pH 7.0). After washing, glass beads (di 0.3 mm, Yasui Kikai) and 100 mM phosphate buffer (pH 7.0) were added to the yeast pellets, and a Multi-beads shocker (Yasui Kikai) was operated for 7 minutes at 4° C., 2500 rpm to disrupt the yeast cells. The resulting disrupted cell liquid was centrifuged for 5 minutes at 4° C., 12000 rpm, and the supernatant was collected as a crude yeast extract. The total protein concentration of the crude yeast extract was measured with a Quick Start protein assay kit (Bio-Rad).
(§3) The reaction was performed at 30° C., and NADH absorbancy changes were measured at a wavelength of 340 nm with a Ubest-55 spectrometer (Jasco).

Test [3] has as its system Clostridium phytofermentans xylose isomerase CpXI (protein ID: YP_001558336), expressed in yeast. The settings on record: Non-patent Literature 1; cited from earlier work.
Test [4] concerns the target Piromyces sp. E2 xylose isomerase PiXI-O (PiXI; codon optimized gene PiXI-O, SEQ ID NO: 46), expressed in yeast (Piromyces sp. E2, UniProt A0ACD6B9F5). In words: Xylose isomerase kinetic analysis, crude yeast extract of W600W/pRS436GAP-PiXI-O (SDH-coupled NADH oxidation). The format is biochemical. The method, then: as §1, §2, §3
Where [5] appears, read: xylose 5 to 250 mM, pH 7.5, 30° C., 10 mM MgCl2, crude yeast extract, Hanes-Woolf plot.

Each structure is given as a SMILES string.

Sequence of Piromyces sp. E2 xylose isomerase PiXI-O (PiXI; codon optimized gene PiXI-O, SEQ ID NO: 46), expressed in yeast (A0ACD6B9F5 1-437): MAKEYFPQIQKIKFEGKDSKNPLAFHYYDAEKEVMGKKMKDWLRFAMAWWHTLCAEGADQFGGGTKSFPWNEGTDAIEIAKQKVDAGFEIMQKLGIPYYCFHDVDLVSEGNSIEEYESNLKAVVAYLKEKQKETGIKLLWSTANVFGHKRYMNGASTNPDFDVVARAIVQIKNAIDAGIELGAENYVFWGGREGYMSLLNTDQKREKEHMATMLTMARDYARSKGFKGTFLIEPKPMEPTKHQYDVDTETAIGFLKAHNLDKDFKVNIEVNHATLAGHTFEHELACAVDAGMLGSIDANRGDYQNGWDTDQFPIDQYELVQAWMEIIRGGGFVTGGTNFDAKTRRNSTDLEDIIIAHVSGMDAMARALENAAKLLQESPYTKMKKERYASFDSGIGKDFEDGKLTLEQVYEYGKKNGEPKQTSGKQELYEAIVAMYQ

On to `OC1OC[C@@H](O)[C@H](O)[C@H]1O` (stereo partly shown) [xylose], for which the Km was 49.8 ± 2.82 mM in test [1], 13.3 ± 2.02 mM in test [2] (setting [5]) and 66 ± 1 mM in test [3]. For the same compound, the “Km value for RsXIC1-O relative to the value for PiXI-O” value in test [2] (Km ratio RsXIC1-O vs PiXI-O) is given as “not more than ⅓”. The Vmax in test [2] (setting [5]) is reported as 0.054 ± 0.007 μmol/mg-protein; in test [4] (setting [5]), 0.078 ± 0.026 μmol/mg-protein. Moreover, the “maximum reaction velocity Vmax for PiXI-O relative to RsXIC1-O” value in test [4] (Vmax ratio PiXI-O vs RsXIC1-O) is listed as “about 1.5 times”.

For orientation: Km means the concentration of substrate that gives half-maximal velocity.
